Reference: patent EP2368895A1, “Ferrocenyl flavonoids” (Centre National de la Recherche Scientifique (CNRS), priority 2010, dated 2011)

Test system: Murine B16 melanoma cells
Conditions: for IC50: murine B16 melanoma cells, MTT, 48 h exposure time, mean ± SD of 3 determinations
Experimental: Murine B16 melanoma cells were grown in Dulbecco's modified essential medium (DMEM) containing 2 mM L-glutamine, 10% fetal bovine serum, 100 U/ml penicillin and 100 µg/ml streptomycin (37°C, 5% CO2). Stock solutions of the compounds were prepared in DMSO and further diluted in DMEM at the indicated concentrations with a final DMSO concentration of not exceeding 1%. Exponentially growing cells were plated onto 96-well plates at a density of 5000 cells per well in 200 µl DMEM, and 24 h later the compounds were added for another 48 h. Control wells were exposed to 1% DMSO. Viability was assessed using the MTT (1-(4,5-dimethylthiazol-2-yl)-3,5-diphenyltetrazolium) test and absorbance was read at 562 nm in a microplate reader (BioKinetics Reader, EL340) (Carmichael et al. 1987).

Row | Substance | IC50 | cytotoxic activity
1 | 2-ferrocenyl-4H-chromen-4-one [Compound 2a] | 33.9 ± 0.8 µM | –
2 | 6,8-dibromo-2-ferrocenyl-4H-chromen-4-one [Compound 2e] | 13.7 ± 1 µM | –
3 | 6,8-dichloro-2-ferrocenyl-4H-chromen-4-one [Compound 2d] | 12.1 ± 0.4 µM | –
4 | 6,8-difluoro-2-ferrocenyl-4H-chromen-4-one [Compound 2f] | 18 ± 0.2 µM | –
5 | 6-bromo-2-ferrocenyl-4H-chromen-4-one [Compound 2c] | 15.9 ± 0.3 µM | –
6 | 6-chloro-2-ferrocenyl-4H-chromen-4-one [Compound 2b] | 15.6 ± 0.3 µM | –
7 | (E)-1-(2-hydroxyphenyl)-3-ferrocenylprop-2-en-1-one [Compound 1a] | 43.7 ± 1.8 µM | –
8 | (E)-1-(3,5-dibromo-2-hydroxyphenyl)-3-ferrocenylprop-2-en-1-one [Compound 1e] | 84.2 ± 4.8 µM | decrease in cytotoxic activity
9 | (E)-1-(3,5-dichloro-2-hydroxyphenyl)-3-ferrocenylprop-2-en-1-one [Compound 1d] | 73.6 ± 2.6 µM | decrease in cytotoxic activity
10 | (E)-1-(3,5-difluoro-2-hydroxyphenyl)-3-ferrocenylprop-2-en-1-one [Compound 1f] | 49.4 ± 1.3 µM | decrease in cytotoxic activity
11 | (E)-1-(5-bromo-2-hydroxyphenyl)-3-ferrocenylprop-2-en-1-one [Compound 1c] | 44.6 ± 2.8 µM | –
12 | (E)-1-(5-chloro-2-hydroxyphenyl)-3-ferrocenylprop-2-en-1-one [Compound 1b] | 29.5 ± 1.8 µM | –
